# US20050119240A1, “1-methyl-20-epi-vitamin d derivative” (priority 2000, published 2005)
# Target: T1, Bovine thymus 1α,25-dihydroxyvitamin D3 receptor (VDR) (Bos taurus, UniProt Q28037)
# T1 sequence (Q28037 1-426): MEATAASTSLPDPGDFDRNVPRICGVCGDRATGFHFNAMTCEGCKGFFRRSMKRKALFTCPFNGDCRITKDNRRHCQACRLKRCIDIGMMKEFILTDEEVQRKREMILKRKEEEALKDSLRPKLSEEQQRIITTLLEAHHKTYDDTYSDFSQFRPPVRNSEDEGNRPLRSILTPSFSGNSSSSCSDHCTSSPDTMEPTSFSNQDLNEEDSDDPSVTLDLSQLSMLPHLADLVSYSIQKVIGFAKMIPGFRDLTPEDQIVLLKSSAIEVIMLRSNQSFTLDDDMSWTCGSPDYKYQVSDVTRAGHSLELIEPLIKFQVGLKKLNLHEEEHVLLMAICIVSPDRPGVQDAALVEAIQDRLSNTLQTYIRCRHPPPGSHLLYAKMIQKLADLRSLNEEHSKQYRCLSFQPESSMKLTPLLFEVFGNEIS
# Settings: relative value with that of 1α,25-dihydroxyvitamin D3 taken as 100; [3H]-1α,25-dihydroxyvitamin D3 0.1 nM, incubation overnight at 4° C.
row,VDR binding properties,Structure (SMILES)
1,0.017,"C=C1C(=CC=C2CCCC3(C)C2CCC3C(C)CCCC(C)(C)O)CC(O)CC1(C)O [Compound 9, (5Z,7E)-(1R,3R,20S)-1-Methyl-9,10-seco-5,7,10(19)-cholestatriene-1,3,25-triol]"
2,1,"C=C1/C(=C\C=C2/CCC[C@@]3(C)C2CCC3[C@@H](C)CCCC(C)(C)O)C[C@@H](O)C[C@]1(C)O (stereo partly drawn) [Compound 6, (5Z,7E)-(1S,3R,20S)-1-Methyl-9,10-seco-5,7,10(19)-cholestatriene-1,3,25-triol]"
3,1,"C=C1/C(=C\C=C2/CCC[C@]3(C)[C@@H]([C@@H](C)CCCC(C)(C)O)CC[C@@H]23)C[C@H](O)C[C@]1(C)O [Compound 4, (5Z,7E)-(1S,3S,20S)-1Methyl-9,10-seco-5,7,10(19)-cholestatriene-1,3,25-triol]"
4,0.004,"C=C1/C(=C\C=C2/CCC[C@@]3(C)C2CCC3[C@@H](C)CCCC(C)(C)O)C[C@H](O)C[C@@]1(C)O (stereo partly drawn) [Compound 11, (5Z,7E)-(1R,3S,20S)-1-Methyl-9,10-seco-5,7,10(19)-cholestatriene-1,3,25-triol]"
